For data set [1] the following is noted: for Normal melting temperature: Crystal, DTA.
The nature of data set [2]: Molar enthalpy of transition or fusion.
Where [3] appears, read: Crystal 2, Differential scanning calorimeter.

Numbers after ± are expanded uncertainties.

Take `Cc1ccc(C(C)C)c(O)c1` [3-methyl-6-isopropylphenol]: the Normal melting temperature in data set [1] came to 49 ± 0.4 °C. Also, the “Molar enthalpy of transition or fusion” value in data set [2] (Crystal, DSC) came to 4.16 ± 0.12 kcal/mol.

For the compound `COc1cc(C=CC(=O)O)ccc1O` [4-hydroxy-3-methoxycinnamic acid], the Normal melting temperature in data set [1] was 171.8 ± 0.9 °C. Moreover, the “Molar enthalpy of transition or fusion” value in data set [2] (Crystal, DSC) is 7.62 ± 0.215 kcal/mol.

On to `Cn1c(=O)c2c(ncn2C)n(C)c1=O` [caffeine], for which the Triple point temperature in data set [1] (setting [3]) is 405.8 K. Moreover, the Normal melting temperature in data set [1] stood at 232.2 ± 0.5 °C. Besides, the “Molar enthalpy of transition or fusion” value was determined as 0.621 kcal/mol in data set [2] (setting [3]) and 4.28 ± 0.143 kcal/mol in data set [2] (Crystal, DSC).

Take `COc1cc(C(=O)O)ccc1O` [4-hydroxy-3-methoxybenzoic acid]: in data set [1], the Normal melting temperature stood at 207.6 ± 0.5 °C. Besides, in data set [2] (Crystal, DSC), the “Molar enthalpy of transition or fusion” value was 6.96 ± 0.191 kcal/mol.
